Measured values as given in PMC10813753 (Biology, 2024).

Key:
[1] = tested on: telomeric G4 sequence F21T; assay: FRET-based DNA melting assay, telomeric G4 F21T; type: binding, human; conditions: 0.2 μM F21T, renaturing process, K+ buffer
Experimental: FRET DNA melting assays were conducted following standard reported procedures. Briefly, the employed oligonucleotides F21T (5′-FAM—(GGG TTA)3GGG—TAMRA-3′) and F10T (5′-FAM—TAT AGC TA TA/Sp18/TA GCT ATA—TAMRA-3′) were dissolved in buffer at 0.25 μM concentration and annealed by heating at 90 °C for 5 min, and then immediately cooling to 0 °C, in the case of F21T, or slowly to rt (F10T) during a period of 3 hours. The solutions were allowed to stand at 4 °C at least overnight.
Tested compounds 1–4 were dissolved in water with up to a maximum 10% DMSO (50 μM stock solution). Each stock solution was then gradually diluted to reach the final concentrations in the assay from 0 to 10 μM and a fixed 0.2 μM concentration of target sequences F21T or F10T. The buffer used for G4 sequence F21T was 10 mM KCl, 90 mM LiCl and 10 mM Li-cacodylate, pH 7.3. The buffer employed for F10T was 100 mM LiCl and 10 mM Li-cacodylate.
The melting process program consisted of an incubation step at 24 °C for 5 min and then a temperature ramp (1 °C/min rate) with fluorescence recordings at every degree up to 95 °C. Subsequently, the microplate with the samples (50 μL) was incubated for 5 min at 96 °C and then gradually cooled by using a temperature ramp of −1 °C/min, with fluorescence measurements at every degree down to 25 °C. The melting and refolding (or renaturing) curves were registered based on the change in emission of the FAM (6-carboxyfluorescein) fluorophore, excited at 492 nm and emitting at 516 nm. Melting temperature values (Tm) were determined from replicate experiments using normalized curves and considering mid-transition T1/2 temperatures.

[2] = tested on: Calf thymus CT DNA; assay: CT DNA viscosity titration; type: binding; conditions: 25 °C, 10 mM sodium phosphate buffer pH 7.2, mean slope
Experimental: The DNA viscosity titration was conducted as previously reported. For that purpose, Calf thymus CT DNA was used. DNA and compound 1 solutions were freshly prepared in 10 mM NaH2PO4/Na2HPO4 buffer, pH = 7.2. CT DNA solutions (~0.35 mM, nt) were equilibrated for 20 min at 25 °C in a thermostated bath, and 20 flow times were then recorded. Several aliquots (ca. 25–60 μL each) of a solution of ligand 1 (~1.8 mM) were sequentially added. After a 20 min equilibration at 25 °C, flow times were registered. Finally, viscosities (μ) were calculated at each titration point, from the averaged flow times recorded and the viscometer constant. The viscosity graphs were obtained by plotting (μ/μ0)^1/3 versus r, the molar ratio of bound ligand to DNA. The parameter μ0 represents the DNA solution viscosity in the absence of a compound.
Viscosity titration assays are known to provide useful information, mainly in reversible dsDNA-ligand non-covalent binding modes, and, especially, they are normally used to differentiate between classical DNA intercalants from groove or external binders. The theory of Cohen and Eisenberg establishes that the existence (or not) of changes in the viscosity of a DNA solution upon binding to small-molecule ligands could be correlated to the ligand binding mode. […]

[3] = tested on: DU145 cells (prostate tumor); assay: MTT viability assay DU145; type: cell-based, human; conditions: 72 h
Experimental: (§1) A panel of five tumor cell lines and two normal cell lines was used to preliminarily test the cytotoxicity of compounds 1–4, and the experiments were conducted as previously reported. All human cell lines were acquired from American Type Culture Collection (ATCC): tumor PC-3 and DU145 (prostate), HeLa (cervix), MCF7 (breast) and HT29 (colorectal) and healthy HFF-1 (fibroblast) and RWPE-1 (prostate). The cell catalogue reference and culture media used in the experiments were CRL-1435^TM, RPMI (PC-3), HTB-81™, RPMI (DU145), CCL-2^TM, DMEM (HeLa), HTB-22^TM, DMEM (MCF-7), HTB-38^TM, modified McCoy’s 5a medium, Catalogue No. 30-2007 (HT29), SCRC-1041^TM, DMEM (HFF-1) and CRL-11609^TM, Keratinocyte-SFM (RWPE-1). Culture media were purchased from Merck: RPMI-1640, DMEM + 10% FBS (Fetal Bovine Serum) + […] (penicillin/streptomycin/amphotericin B). Media and supplements for RWPE-1 were from ThermoFisher (17005075, Madrid, Spain). MCF7 cells were additionally supplemented with insulin (0.001 mg/mL in 500 mL media). Cells were kept at 37 °C (5% CO2), and culture media were renewed three times per week. When the cells reached 80–100% confluence, they were trypsinized and centrifuged, and the concentration was adjusted to each experiment. Cells were seeded at a density of ~10,000 cells/well into 24-well plates. The cells were treated with ligands 1–4 or the cytotoxic agents PhenQE8, PhenDC3 or cisplatin at different concentrations (10 nM–100 μM). Compound solutions were freshly prepared using the appropriate culture medium. Triplicate experiments were run. For MTT viability assays, after 72 h incubation, 50 μL of MTT (5 mg/mL) was added, and an additional incubation of 4 h was allowed. The medium in each well was then replaced by DMSO, and the absorbance was measured at 570 nm using an ELISA plate reader. Absorbances were normalized using negative controls (untreated cells, in triplicate, with a maximum of 0.9% DMSO content). Dose–response curves were obtained by plotting the percentage of viable cells versus logarithmic compound concentration. IC50 values were determined using Kaleidagragh^TM (3.52) software by adjusting the data to Equation 1/(1 + 10^(m2*(log(m1) − x))); m1 = 0.000003; m2 = 1.

[4] = tested on: HeLa cells (cervix); assay: MTT viability assay HeLa; type: cell-based, human; conditions: 72 h
Experimental: as §1

[5] = tested on: MCF-7 cells (breast); assay: MTT viability assay MCF-7; type: cell-based, human; conditions: 72 h
Experimental: as §1

[6] = tested on: HFF-1 cells (healthy fibroblasts); assay: MTT viability assay HFF-1; type: cell-based, human; conditions: 72 h
Experimental: as §1

## 2,2′-(1,10-Phenanthroline-2,9-diyl)-bis(methylene)-bis(hydrazine-1-carbothioamide) [compound 1]
[1]; 5 μM compound
  ΔTm of telomeric G4 F21T: ~ 7 °C
[1]; 10 μM compound
  ΔTm of telomeric G4 F21T: ~ 12 °C
[2]
  viscosity slope, (η/ηo)^1/3 versus r: ca. 0.13
[3]
  IC50: 62.2 ± 5.9 µM
[4]
  IC50: ~100 µM
[5]
  IC50: 78.4 ± 11 µM
[6]
  IC50: 74.4 ± 3.1 µM
